Data from patent US8754068B2, “Modified C-3 betulinic acid derivatives as HIV maturation inhibitors” (priority 2010, dated 2014).

Test system: recombinant NL4-3 virus (Renilla luciferase in nef, Gag P373S)
Test: HIV cell culture assay (luciferase reporter virus in MT-2 cells)
Assay type: cell-based
Conditions: NL43
Procedure, shortened: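 Activity was read as luciferase output (Dual Luciferase reagents premixed with lysis solution) after 4–5 days of infection in serially diluted inhibitor. Host cells were MT-2 in 10% FBS RPMI. The reporter virus came from transfected 293T cells and was titered on MT-2.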

SMILES | EC50 [nM]
CC(C)[C@@H]1CC[C@]2(CO)CC[C@]3(C)[C@H](CC[C@@H]4[C@@]5(C)CC=C(c6ccc(C(=O)O)cc6)C(C)(C)[C@@H]5CC[C@]43C)[C@@H]12 [Example 10, 4-((1S,3aS,5aR,5bR,7aR,11aS,11bR,13aR,13bR)-3a-(hydroxymethyl)-1-isopropyl-5a,5b,8,8,11a-pentamethyl-2,3,3a,4,5,5a,5b,6,7,7a,8,11,11a,11b,12,13,13a,13b-octadecahydro-1H-cyclopenta[a]chrysen-9-yl)benzoic acid] | < 1000
C[C@H]1[C@H](C)CC[C@]2(C(=O)O)CC[C@]3(C)C(=CC[C@@H]4[C@@]5(C)CC=C(c6ccc(C(=O)O)cc6)C(C)(C)[C@@H]5CC[C@]43C)[C@H]12 [Example 12, (1S,2R,4aS,6aS,6bR,8aR,12aS,12bR,14bS)-10-(4-carboxyphenyl)-1,2,6a,6b,9,9,12a-heptamethyl-1,2,3,4,4a,5,6,6a,6b,7,8,8a,9,12,12a,12b,13,14b-octadecahydropicene-4-a-carboxylic acid] | < 1000
CC1(C)CC[C@]2(C(=O)O)CC[C@]3(C)C(=CC[C@@H]4[C@@]5(C)CC=C(c6ccc(C(=O)O)cc6)C(C)(C)[C@@H]5CC[C@]43C)[C@@H]2C1 [Example 13, (4aS,6aS,6bR,8aR,12aS,12bR,14bS)-10-(4-carboxyphenyl)-2,2,6a,6b,9,9,12a-heptamethyl-1,2,3,4,4a,5,6,6a,6b,7,8,8a,9,12,12a,12b,13,14b-octadecahydropicene-4-a-carboxylic acid] | < 1000
